We go through one compound from US20100028427A1, “IMMEDIATE RELEASE FORMULATIONS OF 1-AMINOCYCLOHEXANE COMPOUNDS, MEMANTINE AND NERAMEXANE” (Forest Laboratories, Inc., priority 2004, published 2010).

The data set in a line: Solubility and permeability (Biopharmaceutical Classification System). It is filed as physicochemical.

Consider `CC12CC3CC(C)(C1)CC(N)(C3)C2.Cl` [Memantine HCl, 1-amino-3,5-dimethyladamantane hydrochloride], for which the solubility result is “highly soluble”.
